In patent US11059815B2, “Synthesis of small molecule histone deacetylase 6 degraders, compounds formed thereby, and pharmaceutical compositions containing them” (Wisconsin Alumni Research Foundation, priority 2018, dated 2021):

Tests used:
acetylated tubulin = test: Western blot of acetylated tubulin in MM1S cells; type: cell-based, human; conditions: 100 nM
Excerpt: FIGS. 12A, 12B, and 12C are a series of western blots showing that degrader 12d selectively promotes HDAC6 degradation in MM1S cells.
To further examine the selectivity of the new generation of HDAC6 degraders, compound 12d was compared to SAHA, Next-A, degrader 1 and pan-inhibitor 2 for change of acetylated a-tubulin and acetylated histone H3.
When the cells reached 90% confluence, they were harvested and plated 1×10^6 cells per well in 6-well plate. After overnight seeding, the cells were treated with a solution of compounds or vehicle in culture medium. The culture medium was removed after treatment and then washed twice with cold PBS. To obtain whole cell lysate, all cells were treated with RIPA lysis buffer (25 mM Tris, pH 7-8, 150 mM NaCl, 0.1% SDS, 0.5% sodium deoxycholate, 1% Triton X-100, protease inhibitor cocktail (Roche, 1 tablet per 10 mL) and 1 mM PMSF) on ice for 10 minutes. Supernatant was collected after spinning down at 16,000 g at 4° C. for 15 minutes. Protein concentration was measured by using the Pierce BCA protein assay (Thermo Fisher Scientific). About 10-40 μg of total protein was mixed with 4× Laemmli Loading Dye (250 mM Tris, pH 6.8, 40% glycerol, 5% SDS, 0.005% bromophenol blue, 4% BME) and heated at 95-100° C. for 5 minutes. The heated sample was then subjected to 7.5-12% SDS-PAGE and transferred to PVDF membrane (Bio-Rad,). The membrane was blocked in 5% non-fat milk (Bio-rad) in TBS-T washing buffer (137 mM NaCl, 20 mM Tris, 0.1% Tween) and then incubated with primary antibodies at 4° C. overnight. […] The Immunoblot was generated by ChemiDoc MP Imaging Systems (Bio-Rad) and analyzed by Image J software (only available for download online at https://imagej.net/Downloads). […]
The activity of all eleven “n+4” VHL-based potential degraders to suppress HDAC6 expression was tested at 100 nM and compared to CRBN degrader 2 in MM1S cells. The resulting cells were analyzed for HDAC6 expression by in-cell ELISA (FIG. 15). […]

HDAC6 and related genes = test: qRT-PCR of mRNA level of HDAC6 and related genes; type: cell-based, human; conditions: 6 h treatment
Excerpt: To support the involvement of ubiquitination-proteasome system for the decrease of HDAC6 protein level, the degrader was co-treated with binding competitors or pathway blockers. […] Moreover, it also confirmed the role of the pomalidomide moiety in modulating IKZFs. […] Additionally, proteasome inhibitor MG132 and Bortezomib were used to block the down-stream proteasome degradation. […] Acetylated tubulin level was suppressed as well. This confirms that HDAC6 degradation is responsible for the acetylation of its substrates rather than inhibition by the “warhead” moiety. To exclude the possible transcriptional impact by degraders, qRT-PCR was used to examine the mRNA level of HDAC6 and related genes (data not shown). […] This is consistent with the hypothesis that the cellular knockdown of HDAC6 is due to direct protein degradation, not by transcriptional downregulation.
After treatment, cells were harvested and washed with cold PBS twice. […] The concentration of RNA was measured by Plate Reader. […] Ct value at automatically selected threshold was reported and calculated by 2^−ΔΔCt method. (Livak, K. J.; Schmittgen, T. D. “Analysis of Relative Gene Expression Data Using Real-Time Quantitative PCR and the 2 C T Method” METHODS 2001, 25, 402-408. The bar graph was generated and by GraphPad Prism.

Row | SMILES | change of acetylated tubulin (acetylated tubulin) | effect on mRNA level of HDACs and IKZFs (HDAC6 and related genes)
1 | CCCCN(Cc1ccc(C(=O)NO)cc1)C(=O)Nc1ccc(OCCCCCn2cc(CNc3cccc4c3C(=O)N(C3CCC(=O)NC3=O)C4=O)nn2)cc1 (stereo not drawn) [Compound 12d, 4-((1-butyl-3-(4-((5-(4-(((2-(2,6-dioxopiperidin-3-yl)-1,3-dioxoisoindolin-4-yl)amino)methyl)-1H-1,2,3-triazol-1-yl)pentyl)oxy)phenyl)ureido)methyl)-N-hydroxybenzamide] | increased | Little to no effects
2 | CCCCN(Cc1ccc(C(=O)NO)cc1)C(=O)Nc1ccccc1 [Next-A, 4-[[butyl[(phenylamino)carbonyl]amino]methyl]-N-hydroxy-benzamide, reference compound] | didn't | –
